Measured values: patent US20230266302A1, “SYNTHESIS AND USE OF N-BENZYL SULFONAMIDES” (THE UNIVERSITY OF TULSA, priority 2020, published 2023)

Assays:
Assay in all cases: ATP level assay (CellTiter-Glo), percent of control
Format in all cases: cell-based
HDF (normal cells) = settings: two hour incubation; for activity at 100 µM: 2 h, compound alone, control DMSO, read-out: POC (percent of control) HDF
Text: (§1) In the present method, the method of using the available assays has been modified to measure the short-term effect of compounds of interest on ATP levels in the cells. […] In the modified method, the control and test cells are initially treated with the metabolic inhibitor for a period of about thirty minutes to about four hours. Typically, the treatment of the cells with the metabolic inhibitor is for one hour prior to adding the compound to be screened for anti-cancer properties. However, simultaneous treatment with the metabolic inhibitor and the compound being screened should provide satisfactory results. […] ATP synthesis in cells occurs over multiple biochemical pathways. These pathways are very responsive to metabolic inhibitors and/or changes in available nutrients. By incorporating a metabolic inhibitor which is known to impact certain pathways, the disclosed method provides for measurement of a compound's direct effects on the remaining metabolic pathways available for ATP synthesis in the cell.
(§2) Following treatment of the control and test cells with the metabolic inhibitor, the method calls for addition of the compound to be screened for anti-cancer properties to the cells. Following addition of the compound of interest, the assay is allowed to continue for about one hour to about four hours or depending on the luminescing agent up to eighteen hours. However, approximately 60 minutes will be sufficient to determine the ATP inhibiting effect of the compound to be screened on the cells. Following completion of the selected time period, the ATP level within the cell is determined. ATP levels can be determined by luminescence according to standard measuring procedures, i.e. the luminescence level of the assay from the living cells treated with the two component composition is compared to the luminescence level of the assay from the living cells without the two component composition, i.e., the control experiment. Thus, the ATP levels are determined without killing the cells during the incubation of the cells in the presence of the compound of interest. As a result, the measured reduction in ATP level corresponds directly to the inhibition of the metabolic pathways uninhibited by the metabolic blocker.
(§3) A wide variety of ATP luminescing detection reagents are available commercially. So long as the reagent produces a luminescence in the presence of ATP, the reagent will be suitable for use in the present method. Suitable reagents include but are not limited to any ATP dependent luciferase such as but not limited to firefly luciferase, other modified luciferase based reagents, i.e. luciferase derivatives. According to the rapid method for determining the anti-cancer activity of a compound, a sample of living cells is distributed across a number of testing wells. Typically, 96-well plates are used; however, the number of wells is not critical to the current method. When using a 96-well plate the number of living cells will commonly be about 20,000. The sample wells contain a cell growth medium to promote cell health and growth and an additive to prevent bacterial contamination of the wells. One common example of the cell growth medium is DMEM with 10% FBS as described above. One example of the additive to prevent bacterial contamination is a solution of penicillin G and streptomycin referred to commonly as Pen-Strep. The Pen-Strep solution typically contains 5000 units of penicillin G and 5000 micrograms of streptomycin. Thus, the rapid determination of anti-cancer compounds can be carried out using the following method. • The desired number of cells are distributed in a 96-well plate containing 100 μL DMEM plus 10% FBS with optional Pen-Strep. • After 24 hours, cells are treated with the compound of interest or a 5% solution of dimethyl sulfoxide (DMSO) in water as a control. • The time period for exposure to the compound of interest and the DMSO control will vary depending on the luminescing detection reagent. […]

T47D (breast cancer) = settings: two hour incubation; for activity at 100 µM: Homo sapiens, T47D, 2 h, compound alone, control DMSO, read-out: POC (percent of control) T47D
Text: as §1, §2, §3

H293 (kidney cancer) = settings: two hour incubation; for activity at 100 µM: 2 h, compound alone, control DMSO, read-out: POC (percent of control) H293
Text: as §1, §2, §3

MDA-MB (breast cancer) = settings: two hour incubation; for activity at 100 µM: 2 h, compound alone, control DMSO, read-out: POC (percent of control) MDA-MB
Text: as §1, §2, §3

[1] = test system: BxPC3 (pancreatic cancer); settings: two hour incubation; for activity at 100 µM: Homo sapiens, BXPC-3, 2 h, compound alone, control DMSO, read-out: POC (percent of control) BxPC3
Text: as §1, §2, §3

NCI-H196 (lung cancer) = settings: two hour incubation; for activity at 100 µM: NCI-H196, 2 h, compound alone, control DMSO, read-out: POC (percent of control) NCI-H196
Text: as §1, §2, §3

HeLa (cervical cancer) = settings: two hour incubation; for activity at 100 µM: Homo sapiens, HeLa, 2 h, compound alone, control DMSO, read-out: POC (percent of control) HeLa
Text: as §1, §2, §3

SkBr3 (breast cancer) = settings: two hour incubation; for activity at 100 µM: Homo sapiens, SK-BR-3, 2 h, compound alone, control DMSO, read-out: POC (percent of control) SkBr3
Text: as §1, §2, §3

MCF7 (breast cancer) = settings: two hour incubation; for activity at 100 µM: Homo sapiens, MCF7, 2 h, compound alone, control DMSO, read-out: POC (percent of control) MCF7
Text: as §1, §2, §3

[2] = test system: MCF10A (non-cancerous breast); settings: two hour incubation; for activity at 100 µM: Homo sapiens, MCF-10A, 2 h, compound alone, control DMSO, read-out: POC (percent of control) MCF10A
Text: as §1, §2, §3

PC3 (prostate cancer) = settings: two hour incubation; for activity at 100 µM: 2 h, compound alone, control DMSO, read-out: POC (percent of control) PC3
Text: as §1, §2, §3

[3] = compound 100 uM + 2DG (about 10-20 mM)
[4] = compound 100 uM + rotenone (approximately 1.25 μM)

Row | SMILES | activity at 100 µM (HDF (normal cells)) [%] | POC (percent of control) HDF (HDF (normal cells); [3]) | POC (percent of control) HDF (HDF (normal cells); [4]) | activity at 100 µM (T47D (breast cancer)) [%] | POC (percent of control) T47D (T47D (breast cancer); [3]) | POC (percent of control) T47D (T47D (breast cancer); [4]) | activity at 100 µM (H293 (kidney cancer)) [%] | POC (percent of control) H293 (H293 (kidney cancer); [3]) | POC (percent of control) H293 (H293 (kidney cancer); [4]) | activity at 100 µM (MDA-MB (breast cancer)) [%] | POC (percent of control) MDA-MB (MDA-MB (breast cancer); [3]) | POC (percent of control) MDA-MB (MDA-MB (breast cancer); [4]) | activity at 100 µM [1] [%] | POC (percent of control) BxPC3 [1, 3] | POC (percent of control) BxPC3 [1, 4] | activity at 100 µM (NCI-H196 (lung cancer)) [%] | POC (percent of control) NCI-H196 (NCI-H196 (lung cancer); [3]) | POC (percent of control) NCI-H196 (NCI-H196 (lung cancer); [4]) | activity at 100 µM (HeLa (cervical cancer)) [%] | POC (percent of control) HeLa (HeLa (cervical cancer); [3]) | further results
1 | Cc1ccc(S(=O)(=O)NCc2nn(C)c3ccccc23)cc1 [Compound 8, 4-methyl-N-[(1-methyl-1H-indazol-3-yl)methyl]benzenesulfonamide] | 99 | 91.3% of control | 88.3% of control | 64.1 | 94.6% of control | 101.2% of control | 112 | 83.5% of control | 87.1% of control | 93.9 | 91.7% of control | 86.2% of control | 106 | 87.1% of control | 93.5% of control | 91.1 | 99.2% of control | 95.1% of control | 106 | 80.8% of control | POC (percent of control) HeLa (HeLa (cervical cancer); [4]): 99.1% of control; activity at 100 µM (SkBr3 (breast cancer)): 88.8%; POC (percent of control) SkBr3 (SkBr3 (breast cancer); [3]): 97.1% of control; POC (percent of control) SkBr3 (SkBr3 (breast cancer); [4]): 103.7% of control; activity at 100 µM (MCF7 (breast cancer)): 140%; POC (percent of control) MCF7 (MCF7 (breast cancer); [3]): 86.2% of control; POC (percent of control) MCF7 (MCF7 (breast cancer); [4]): 116.7% of control; activity at 100 µM [2]: 94.6%; POC (percent of control) MCF10A [2, 3]: 77.9% of control; POC (percent of control) MCF10A [2, 4]: 94.4% of control; activity at 100 µM (PC3 (prostate cancer)): 109%; POC (percent of control) PC3 (PC3 (prostate cancer); [3]): 87.9% of control; POC (percent of control) PC3 (PC3 (prostate cancer); [4]): 108.3% of control
2 | Cc1ccc(S(=O)(=O)NCc2ccc3c(cnn3C)c2)cc1 [Compound 9, 4-methyl-N-[(1-methyl-1H-indazol-5-yl)methyl]benzenesulfonamide] | 86.4 | 88.5% of control | 107.6% of control | 50.3 | 58.9% of control | 103.5% of control | 83.3 | 76.6% of control | 88.5% of control | 95.6 | 91.7% of control | 114% of control | 114 | 57.6% of control | 118.5% of control | 93.1 | 86.1% of control | 117.7% of control | 97.3 | 80.5% of control | POC (percent of control) HeLa (HeLa (cervical cancer); [4]): 89.8% of control; activity at 100 µM (SkBr3 (breast cancer)): 74.1%; POC (percent of control) SkBr3 (SkBr3 (breast cancer); [3]): 89.9% of control; POC (percent of control) SkBr3 (SkBr3 (breast cancer); [4]): 115.5% of control; activity at 100 µM (MCF7 (breast cancer)): 117%; POC (percent of control) MCF7 (MCF7 (breast cancer); [3]): 75.8% of control; POC (percent of control) MCF7 (MCF7 (breast cancer); [4]): 95.1% of control; activity at 100 µM [2]: 89.6%; POC (percent of control) MCF10A [2, 3]: 88.3% of control; POC (percent of control) MCF10A [2, 4]: 123.7% of control; activity at 100 µM (PC3 (prostate cancer)): 90.4%; POC (percent of control) PC3 (PC3 (prostate cancer); [3]): 89.3% of control; POC (percent of control) PC3 (PC3 (prostate cancer); [4]): 101.7% of control
